The values that follow come from the NIST ThermoML archive (doi:10.1016/j.jct.2013.09.009).

± gives the expanded uncertainty stated by the source.

The series can be described thus: cn = amount concentration of the nth substance listed, in mol/dm3. The settings on record: 298.15 K, 101 kPa, Liquid, c1 = 1.

On to `CNCC(=O)O` [sarcosine] + O, for which the speed of sound (as a rule, how fast a sound wave travels through the sample) (Sing-around technique in a fixed-path interferometer) was 1561.4 ± 1.3 m/s. Further, for the setting “Vibrating tube method”, the mass density – broadly, mass per unit of volume – was 1023.26 ± 0.12 kg/m3.
